Test results: patent US6955648B2, “Precision brain blood flow assessment remotely in real time using nanotechnology ultrasound” (New Health Sciences, Inc., priority 2000, dated 2005)

Tested on: cerebral vessels
Settings: person after first stroke
Procedure: A person with a history of hypertension experiences a first stroke in the left middle cerebral artery resulting in deficits in the right hand, leg, and some deficits in motor speech. These are the symptoms upon presentation in the neurological clinic. Transcranial Doppler analysis of all cerebral vessels is performed in addition to analyzing the common carotid artery and the internal carotid artery.
The physician considers prescription of Plavix together with a calcium channel blocker. Transcranial Doppler analysis was performed at monthly intervals. […] The physician subsequently administers a higher dose. Again, transcranial Doppler analysis is performed on all cerebral vessels.

[1] = higher dose, transcranial Doppler on all cerebral vessels

COC(=O)[C@H](c1ccccc1Cl)N1CCc2sccc2C1 [Plavix]
effect on the cerebral vessels (changes in the individual cerebral vessels) (Plavix +/− calcium channel blocker, initial dose, transcranial Doppler at monthly intervals): no effect | auto-regulation curve [1]: left-shifts toward normal | pulsatility index [1]: decreases
